For the test, the target named is T1, human DGAT2 (hDGAT2) (Homo sapiens, UniProt Q96PD7).
T1 construct: made in house; host or cells: Sf-9 insect cells (baculovirus), membrane fraction
T1 sequence (Q96PD7 1-388): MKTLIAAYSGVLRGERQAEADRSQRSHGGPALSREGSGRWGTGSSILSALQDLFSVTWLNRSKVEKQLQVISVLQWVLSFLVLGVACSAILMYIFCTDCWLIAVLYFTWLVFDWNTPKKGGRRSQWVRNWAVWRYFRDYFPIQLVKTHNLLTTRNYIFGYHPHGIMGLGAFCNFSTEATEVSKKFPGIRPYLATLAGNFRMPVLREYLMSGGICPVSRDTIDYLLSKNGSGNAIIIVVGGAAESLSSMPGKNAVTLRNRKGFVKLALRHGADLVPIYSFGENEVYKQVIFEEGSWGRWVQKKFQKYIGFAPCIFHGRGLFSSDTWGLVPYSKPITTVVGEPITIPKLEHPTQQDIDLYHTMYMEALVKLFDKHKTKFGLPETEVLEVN
The test can be described thus: DGAT2 Enzymatic Activity Assay. Type of test: biochemical. The settings on record: membrane prep of Sf-9 cells expressing hDGAT2, 25 μM diolein, 5 μM 13C oleoyl-CoA, 13C18-triolein by LC/MS/MS. In outline:
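Membranes from Sf-9 cells expressing untagged human DGAT2 (8 ng/μL) incubated at rt in 100 mM Tris·Cl pH 7.0, 20 mM MgCl2, 5% ethanol with 25 μM diolein and 5 μM 13C oleoyl-CoA. 13C18-triolein product quantified by LC/MS/MS against 13C21-triolein internal standard; IC50 by 4-parameter fit.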

Ten compounds from US11976061B2, “Preparation of benzimidazolone derivatives as novel diacylglyceride O-acyltransferase 2 inhibitors” (Merck Sharp & Dohme LLC, priority 2020, dated 2024) can be followed below.

Molecules are shown by their SMILES. Like-named read-outs stand apart in the source and are kept apart here.

One may read the IC50 as the point on the concentration scale where inhibition reaches its midpoint. As for `CC(n1c(=O)n(-c2cccc(OC(F)F)c2)c2ccc(C(=O)NC3(C)CCS(=O)(=O)CC3)cc21)C(C)(C)O` (single isomer, unassigned) [Example 67a, 1-(3-(difluoromethoxy)phenyl)-3-(3-hydroxy-3-methylbutan-2-yl)-N-(4-methyl-1,1-dioxidotetrahydro-2H-thiopyran-4-yl)-2-oxo-2,3-dihydro-1H-benzo[d]imidazole-5-carboxamide], the 50% inhibitory concentration (IC50) (read-out: DGAT2 IC50) was 1.6 nM.

Turning to `CCn1cc(CNC(=O)c2ccc3c(c2)n(C(C)C)c(=O)n3-c2cccc(OC(F)F)c2)cn1` [Example 63, 1-(3-(difluoromethoxy)phenyl)-N-((1-ethyl-1H-pyrazol-4-yl)methyl)-3-isopropyl-2-oxo-2,3-dihydro-1H-benzo[d]imidazole-5-carboxamide], the half-inhibitory concentration (IC50) (read-out: DGAT2 IC50) was over 9990 nM.

`CC(n1c(=O)n(-c2cc(OC(F)(F)F)ccc2F)c2ccc(C(=O)NC3(C)CCS(=O)(=O)CC3)cc21)C(C)(C)O` (single isomer, unassigned) [Example 71a, 1-(2-fluoro-5-(trifluoromethoxy)phenyl)-3-(3-hydroxy-3-methylbutan-2-yl)-N-(4-methyl-1,1-dioxidotetrahydro-2H-thiopyran-4-yl)-2-oxo-2,3-dihydro-1H-benzo[d]imidazole-5-carboxamide]: under “read-out: DGAT2 IC50”, the concentration for half-maximal inhibition (IC50) turned out to be 71 nM.

With `CCOc1cccc(-n2c(=O)n(C(C)C)c3cc(C(=O)N[C@@]4(C)CCS(=O)(=O)C4)cnc32)c1` [Example 97, 3-(3-ethoxyphenyl)-1-isopropyl-N-[(3S)-3-methyl-1,1-dioxo-thiolan-3-yl]-2-oxo-imidazo[4,5-b]pyridine-6-carboxamide], the IC50 (read-out: DGAT2 IC50) came to 154 nM.

For the compound `CC(C)n1c(=O)n(-c2cccc(OC(F)F)c2)c2ccc(C(=O)NC(C)C(C)(C)O)cc21` (stereo not shown) [Example 27, 1-[3-(difluoromethoxy)phenyl]-N-(2-hydroxy-1,2-dimethyl-propyl)-3-isopropyl-2-oxo-benzimidazole-5-carboxamide], the IC50 (read-out: DGAT2 IC50) was over 10000 nM.

For `CC(C)n1c(=O)n(-c2cccc(OC(F)F)c2)c2c(F)cc(C(=O)NC3(C)CS(=O)(=O)C3)cc21` [Example 108, 1-[3-(difluoromethoxy)phenyl]-7-fluoro-3-isopropyl-N-(3-methyl-1,1-dioxo-thietan-3-yl)-2-oxo-benzimidazole-5-carboxamide], under “read-out: Human DGAT2 IC50”, the concentration for half-maximal inhibition (IC50) stood at 12 nM.

For `CC(n1c(=O)n(-c2cc(OC(F)F)ccc2F)c2ccc(C(=O)NC3(C)CCS(=O)(=O)CC3)cc21)C(C)(C)O` (single isomer, unassigned) [Example 66b, 1-(5-(difluoromethoxy)-2-fluorophenyl)-3-(3-hydroxy-3-methylbutan-2-yl)-N-(4-methyl-1,1-dioxidotetrahydro-2H-thiopyran-4-yl)-2-oxo-2,3-dihydro-1H-benzo[d]imidazole-5-carboxamide], under “read-out: DGAT2 IC50”, the half-maximal inhibitory concentration (IC50) is 16.9 nM.

As to `Cc1nc2c(-n3c(=O)n(C(C)C)c4cc(C(=O)NC5(C)CS(=O)(=O)C5)ccc43)cccc2o1` [Example 48, 3-isopropyl-N-(3-methyl-1,1-dioxidothietan-3-yl)-1-(2-methylbenzo[d]oxazol-4-yl)-2-oxo-2,3-dihydro-1H-benzo[d]imidazole-5-carboxamide], for the setting “read-out: DGAT2 IC50”, the half-inhibitory concentration (IC50) was over 10000 nM.

As for `CC(C)[C@@H](CO)NC(=O)c1ccc2c(c1)n(C(C)C)c(=O)n2-c1cccc(OC(F)F)c1` [Example 34, 1-[3-(difluoromethoxy)phenyl]-N-[(1S)-1-(hydroxymethyl)-2-methyl-propyl]-3-isopropyl-2-oxo-benzimidazole-5-carboxamide], the IC50 (read-out: DGAT2 IC50) came to 62 nM.

Take `CC(n1c(=O)n(-c2cccc(OC(F)(F)C(F)F)c2)c2ccc(C(=O)NC3(C)CCS(=O)(=O)CC3)cc21)C(C)(C)O` (single isomer, unassigned) [Example 77b, 3-(3-hydroxy-3-methylbutan-2-yl)-N-(4-methyl-1,1-dioxidotetrahydro-2H-thiopyran-4-yl)-2-oxo-1-(3-(1,1,2,2-tetrafluoroethoxy)phenyl)-2,3-dihydro-1H-benzo[d]imidazole-5-carboxamide]: the half-maximal inhibitory concentration (IC50) (read-out: DGAT2 IC50) is 9.8 nM.
